Legend:
Assay type in all cases: in vivo
Details in all cases: 200 mpk PO; LPS-challenged mice, plasma at 6.5 h; unpaired t-test vs vehicle
[1] = system: leukemia inhibitory factor (LIF); assay: Acute LPS-induced sepsis in C57BL/6 mice: leukemia inhibitory factor (LIF) cytokine detection assay
Source text: FIG. 21 is a graph showing the results of a leukemia inhibitory factor (LIF) cytokine detection assay in samples collected from mouse subjects after administration of compounds of the present disclosure. LIF is an interleukin 6 class cytokine that affects cell growth by inhibiting differentiation.
(§1) The primary objective of this study was to collect plasma samples of lipopolysaccharide (LPS) challenged C57BL/6 mice after dose of test compounds to provide a cytokine profile as impacted by prophylactic treatments. This study models acute sepsis, which is a systemic inflammatory syndrome initiated by Gram-negative and Gram-positive bacteria and fungi which infect the lungs, abdomen, bloodstream, and renal or genitourinary tracts. Sepsis patients ultimately die of multiorgan failure which is caused by extensive tissue hypo-oxygenation due to ongoing microvascular leakage, disseminated intravascular coagulation, compromised energy production, and metabolic alterations. Sepsis is characterized by an early systemic inflammatory response phase featuring symptoms, such as tachycardia, fever, hyperventilation, and activation of the complement and coagulation cascades. However, it is now appreciated that a compensatory anti-inflammatory response phase follows, characterized by neuroendocrine-mediated immunosuppression. Since these processes are the result of interaction between cells of inflammation and organs, investigation of the treatment of this syndrome requires the use of intact animal models. The use of ten mice per group allows useful statistical modelling of the results.
(§2) For the data shown in Table 2A, 103 mice (female, 18-22 gram, C57BL/6) were purchased from ENVIGO. The mice were housed in 20 cages of 5 mice per cage with 1 cage of 3 mice as extra. The cages had filter tops and autoclaved bedding, and the animals were placed in quarantine with daily inspection. The treatment groups are detailed in Table 2A below. 10 mice were included in each group. The mice were dosed by oral gavage (PO) at 10 ml/kg as per the table below. MC=methyl cellulose.
as §2, with “2B, 185” for “2A, 103”, “37” for “20”, “cage.” for “cage with 1 cage of 3 mice as extra.”, “2B” for “2A”, “(P0)” for “(PO)”
(§3) At T=0 h, the mice were dosed with one of the test compounds as described in the above table.
(§4) At T=0.5 h, the mice were injected IP with 1.5 mg/kg […] (Sigma).
(§5) At T=6.5 h, all mice were anesthetized and exsanguinated into pre-chilled EDTA-treated tubes. The blood was processed to plasma which was stored in labeled 0.5 polypropylene snap-cap tubes (0.5 mL Eppendorf Safe-Lock Tubes (Fisher Scientific) at −80° C.
(§6) Preparation of vehicle: 1.0 gram of methyl cellulose (Sigma) was dissolved in 200 mL of water (USP purified) to make a solution of 0.5% methyl cellulose in water. Preparation of LPS solution: 6 mg of LPS (from Escherichia Coli 055:B5, Cat #L2880, Sigma Lot #057m4013) was dissolved in 20 ml of saline to give a LPS solution of 0.3 mg/ml. All mice were injected with 5 ml/kg (1.5 mg/kg) at the scheduled time by intraperitoneal injection.
(§7) A 32-plex cytokine panel was obtained from Eve Technologies. Each cytokine was assessed based against a 7 point curve range in duplicate. […]

[2] = system: MCP-1(CCL2); assay: Acute LPS-induced sepsis in C57BL/6 mice: MCP-1(CCL2) cytokine detection assay
[3] = system: LIX (CXCL5); assay: Acute LPS-induced sepsis in C57BL/6 mice: LIX (CXCL5) cytokine detection assay
Source text: FIG. 22 is a graph showing the results of a LIX (CXCL5) cytokine detection assay in samples collected from mouse subjects after administration of compounds of the present disclosure.
as §1, with “Since these processes are the result of interaction between cells of inflammation and organs, investigation of the treatment of this syndrome requires the use of intact animal models. The use of ten mice per group allows useful statistical modelling of the results.” left out
as §7

[4] = system: IFNγ; assay: Acute LPS-induced sepsis in C57BL/6 mice: IFNγ cytokine detection assay
[5] = system: KC; assay: Acute LPS-induced sepsis in C57BL/6 mice: KC cytokine detection assay
Source text: FIG. 20 is a graph showing the results of a KC cytokine detection assay in samples collected from mouse subjects after administration of compounds of the present disclosure.
as §1, §2
as §2, with “2B, 185” for “2A, 103”, “37” for “20”, “cage.” for “cage with 1 cage of 3 mice as extra.”, “2B” for “2A”, “(P0)” for “(PO)”
as §3, §4, §5, §6
(§8) A 32-plex cytokine panel was obtained from Eve Technologies. Each cytokine was assessed based against a 7 point curve range in duplicate. The average of the two replicate analyses was used for statistics. Unpaired t-tests were performed using Excel™ contrasting vehicle against each treatment group. One star indicates P<0.05. Two stars indicates P<0.01. Three stars indicates P<0.001. Four stars indicates P<0.0001. Most, but not all, statistically significant results are indicated with star(s).

[6] = system: TNFα; assay: Acute LPS-induced sepsis in C57BL/6 mice: TNFα cytokine detection assay
Source text: FIG. 29 is a graph showing the results of a TNFα cytokine detection assay in samples collected from mouse subjects after administration of compounds of the present disclosure.
as §1
as §2, with “cellulose. […]” for “cellulose.”
as §7

[7] = system: IL-6; assay: Acute LPS-induced sepsis in C57BL/6 mice: IL-6 cytokine detection assay
Source text: FIG. 11 is a graph showing the results of an IL-6 cytokine detection assay in samples collected from mouse subjects after administration of compounds of the present disclosure.
as §1, §2
as §2, with “2B, 185” for “2A, 103”, “37” for “20”, “cage.” for “cage with 1 cage of 3 mice as extra.”, “2B” for “2A”, “(P0)” for “(PO)”
as §3, §4
(§9) At T=6.5 h, all mice were anesthetized and exsanguinated into pre-chilled EDTA-treated tubes. […]
as §7

[8] = system: IL-17; assay: Acute LPS-induced sepsis in C57BL/6 mice: IL-17 cytokine detection assay
Source text: FIG. 19 is a graph showing the results of an IL-17 cytokine detection assay in samples collected from mouse subjects after administration of compounds of the present disclosure.
as §1
as §2, with “The mice were dosed by oral gavage (PO) at 10 ml/kg as per the table below.” left out
as §2, with “2B, 185” for “2A, 103”, “37” for “20”, “cage.” for “cage with 1 cage of 3 mice as extra.”, “2B” for “2A”, “(P0)” for “(PO)”
as §3, §4, §9, §7

[9] = system: IL-9; assay: Acute LPS-induced sepsis in C57BL/6 mice: IL-9 cytokine detection assay
Source text: FIG. 13 is a graph showing the results of an IL-9 cytokine detection assay in samples collected from mouse subjects after administration of compounds of the present disclosure.
as §1
as §2, with “cellulose. […]” for “cellulose.”
as §7

[10] = system: IL-15; assay: Acute LPS-induced sepsis in C57BL/6 mice: IL-15 cytokine detection assay
[11] = system: IL-1α; assay: Acute LPS-induced sepsis in C57BL/6 mice: IL-1α cytokine detection assay
Source text: FIG. 5 is a graph showing the results of an IL-1α cytokine detection assay in samples collected from mouse subjects after administration of compounds of the present disclosure.
as §1, with “Since these processes are the result of interaction between cells of inflammation and organs, investigation of the treatment of this syndrome requires the use of intact animal models. The use of ten mice per group allows useful statistical modelling of the results.” left out
as §7

[12] = system: IL-13; assay: Acute LPS-induced sepsis in C57BL/6 mice: IL-13 cytokine detection assay
Source text: FIG. 17 is a graph showing the results of an IL-13 cytokine detection assay in samples collected from mouse subjects after administration of compounds of the present disclosure.
as §1, §2
as §2, with “2B, 185” for “2A, 103”, “37” for “20”, “cage.” for “cage with 1 cage of 3 mice as extra.”, “2B” for “2A”, “(P0)” for “(PO)”
as §3, §4, §5, §6
A 32-plex cytokine panel was obtained from Eve Technologies. Each cytokine was assessed based against a 7 point curve range in duplicate. The average of the two replicate analyses was used for statistics. […]

[13] = system: IL-10; assay: Acute LPS-induced sepsis in C57BL/6 mice: IL-10 cytokine detection assay
[14] = system: VEGF; assay: Acute LPS-induced sepsis in C57BL/6 mice: VEGF cytokine detection assay
Source text: FIG. 30 is a graph showing the results of a VEGF cytokine detection assay in samples collected from mouse subjects after administration of compounds of the present disclosure.
as §1, with “Since these processes are the result of interaction between cells of inflammation and organs, investigation of the treatment of this syndrome requires the use of intact animal models. The use of ten mice per group allows useful statistical modelling of the results.” left out
as §7

[15] = system: eotaxin; assay: Acute LPS-induced sepsis in C57BL/6 mice: eotaxin cytokine detection assay
[16] = system: IL-3; assay: Acute LPS-induced sepsis in C57BL/6 mice: IL-3 cytokine detection assay
[17] = system: M-CSF (CSF1); assay: Acute LPS-induced sepsis in C57BL/6 mice: M-CSF (CSF1) cytokine detection assay
Source text: FIG. 24 is a graph showing the results of an M-CSF (CSF1) cytokine detection assay in samples collected from mouse subjects after administration of compounds of the present disclosure. M-CSF causes hematopoietic stem cells to differentiate into macrophages.
as §1, §2
as §2, with “2B, 185” for “2A, 103”, “37” for “20”, “cage.” for “cage with 1 cage of 3 mice as extra.”, “2B” for “2A”, “(P0)” for “(PO)”
as §3, §4, §5, §6, §8

CC(O)(c1sc2cc(C(F)(F)F)ccc2c1N)C(F)(F)F (centres unmarked) [Compound I-3, 2-(3-amino-6-(trifluoromethyl)benzo[b]thiophen-2-yl)-1,1,1-trifluoropropan-2-ol]
LIF: significant cytokine change vs. vehicle [1]: * (One star indicates P<0.05) | MCP-1: significant cytokine change vs. vehicle [2]: **** (Four stars indicates P<0.0001) | LIX: significant cytokine change vs. vehicle [3]: * (One star indicates P<0.05) | IFNy: significant cytokine change vs. vehicle [4]: **** (Four stars indicates P<0.0001) | KC: significant cytokine change vs. vehicle [5]: ** (Two stars indicates P<0.01) | TNFa: significant cytokine change vs. vehicle [6]: ** (Two stars indicates P<0.01) | IL-6: significant cytokine change vs. vehicle [7]: ** (Two stars indicates P<0.01) | IL-17: significant cytokine change vs. vehicle [8]: *** (Three stars indicates P<0.001) | IL-9: significant cytokine change vs. vehicle [9]: *** (Three stars indicates P<0.001) | IL-15: significant cytokine change vs. vehicle [10]: ** (Two stars indicates P<0.01) | IL-1a: significant cytokine change vs. vehicle [11]: *** (Three stars indicates P<0.001) | IL-13: significant cytokine change vs. vehicle [12]: *** (Three stars indicates P<0.001) | IL-10: significant cytokine change vs. vehicle [13]: * (One star indicates P<0.05) | VEGF: significant cytokine change vs. vehicle [14]: * (One star indicates P<0.05) | Eotaxin: significant cytokine change vs. vehicle [15]: ** (Two stars indicates P<0.01) | IL-3: significant cytokine change vs. vehicle [16]: **** (Four stars indicates P<0.0001) | M-CSF: significant cytokine change vs. vehicle [17]: ** (Two stars indicates P<0.01)

Reference: patent publication US20240383870A1, “HETEROCYCLIC ALDEHYDE TRAPPING COMPOUNDS AND USES THEREOF” (Aldeyra Therapeutics, Inc., priority 2021, published 2024)
